Records with an inconclusive call do not appear. The source made the active and inactive calls. No rule for the calls is given here; tested in MIN6 cells.

The assay in a line: cell-permeable autofluorescent compounds in GFP channel, dose response, artefact control, imaging, high-content imaging (AID 2124).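 As to all read-outs here: cells exposed to compound for 48 hours before fixing.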 The settings on record: cells, GFP-channel autofluorescence, high-content imaging, at 10 µM; for z-score: stronger effect = higher value.

Regarding `CCOc1ccc(-c2c(C#N)c(N)nc3sc(C(=O)c4ccccc4)c(N)c23)cc1`, the z-score was 0.98 and the cell count stood at 3090 cells.
In the same order, the values of `Cc1nc(NC(=O)COC(=O)CCS(=O)(=O)c2ccccc2Cl)c(Cl)cc1Cl` are -0.39 (inactive) and 3210 cells.
For `CC(C)N1CCc2c(sc(NC(=O)c3cc4cc([N+](=O)[O-])ccc4s3)c2C(N)=O)C1`, in that order: -0.23 (inactive) and 177 cells.
In the same order, the values of `COc1cccc(OC)c1OCCN(C)C` are -0.33 (inactive) and 3360 cells.
Turning to `Cc1[nH]c2ccccc2c1/C=N/Nc1ccc([N+](=O)[O-])cc1`, the z-score was 0.2 and the cell count stood at 1600 cells.
Consider `Cc1cc(=O)oc2cc(OCC(=O)OCC(=O)NC3CC3)ccc12`, for which the z-score is -0.38 (inactive) and the cell count came out at 3150 cells.
Regarding `CC(C)N1CCc2c(sc(NC(=O)c3ccc(S(=O)(=O)N4CCc5ccccc54)cc3)c2C(N)=O)C1`, the z-score is 0.77 and the cell count was 1390 cells.
In the same order, the values of `CCCN1C(=O)c2cccc3c(N4CCCCC4)ccc(c23)C1=O` are 0.28 and 3300 cells.
For `COC(=O)c1[nH]c2cccc(Cl)c2c1NC(=O)CN(C)C1CCCCC1`, in that order: -0.33 (inactive) and 3280 cells.
Regarding `Cc1nnc(NC(=O)c2sc3nc(-c4cccs4)cc(C(F)(F)F)c3c2N)s1`, the z-score was 0.85 and the cell count stood at 2610 cells.
On to `COc1cc([N+](=O)[O-])ccc1-c1ccc(/C=N/NC(N)=O)o1`, for which the z-score is -0.34 (inactive) and the cell count amounted to 2860 cells.
Turning to `Cc1cc(C)nc(SCSc2nc(C)cc(C)n2)n1`, the z-score was -0.38 (inactive) and the cell count worked out at 3370 cells.
In the same order, the values of `CCN(CC)CCn1c(=S)[nH]c2ccc(Cl)cc2c1=O` are -0.33 (inactive) and 2890 cells.
In the same order, the values of `COc1cccc(C(=O)CN2C(=O)C(C)(C)Oc3ccc(C(=O)N4CCCCCC4)cc32)c1` are -0.33 (inactive) and 3680 cells.
In the same order, the values of `Cc1[nH]c2ccccc2c1Cc1nnc(SCC(N)=O)o1` are -0.26 (inactive) and 2780 cells.
Take `COc1cccc(NC(=O)Cn2c(-c3cncs3)nc3ccccc32)c1`: the z-score was -0.39 (inactive) and the cell count was found to be 3160 cells.
For `NC(=O)c1cc2ccc(O)cc2oc1=NCc1ccccc1`, in that order: -0.33 (inactive) and 3140 cells.
For `CCN1/C(=C/c2ccc3cc(C)ccc3[n+]2CC)Sc2ccccc21`, in that order: 1.64 and 190 cells.
For `O=C(/C=C/c1ccc2ccccc2n1)c1cc(Br)ccc1O`, the z-score was -0.24 (inactive) and the cell count came out at 2620 cells.
For `CCCCCCn1c(O)c(C=Nc2ccccc2N2CCOCC2)c(=O)[nH]c1=S`, in that order: -0.37 (inactive) and 3050 cells.
For the compound `COc1cccc(NC(=O)N2CCN(c3nnnn3-c3ccccc3)CC2)c1`, the z-score is -0.33 (inactive) and the cell count is 2880 cells.
For `C=CCn1c(SCCOc2ccc(OC)cc2)nnc1C(C)NC(=O)Cc1ccc(OC)cc1` (stereo unspecified), in that order: -0.33 (inactive) and 3140 cells.
With `Cc1cc(/C=N/n2cnnc2)c(C)n1-c1cccc(C(=O)O)c1`, the z-score was -0.33 (inactive) and the cell count was 2960 cells.
In the same order, the values of `C1=C(c2ccccc2)Nc2nnnn2C1` are -0.26 (inactive) and 3170 cells.
As to `COC(CNC(=O)c1ccc(Cn2c(=S)[nH]c3cc4c(cc3c2=O)OCO4)cc1)OC`, the z-score was -0.33 (inactive) and the cell count is 3340 cells.
In the same order, the values of `CC1(C)c2ccccc2N2CC(=O)NC21/C=C/c1ccco1` (stereo unspecified) are -0.33 (inactive) and 2980 cells.
For `CCn1cc(C(=O)NCCN(C)CCc2ccccc2)c(=O)c2cc(S(=O)(=O)N(C)C)ccc21`, in that order: -0.33 (inactive) and 3360 cells.
For `CCOC(=O)c1c(-c2ccc(C)cc2)csc1NC(=O)/C(C#N)=C/c1ccc(O)c(OC)c1`, in that order: -0.3 (inactive) and 2890 cells.
With `O=C(CSc1ncn[nH]1)NCc1ccccc1`, the z-score is -0.39 (inactive) and the cell count was 3380 cells.
`COc1ccc(-c2ccc3c(N)c(C(=O)c4cccc(OC)c4)sc3n2)cc1`: the z-score was -0.24 (inactive) and the cell count is 2850 cells.
As to `Cc1ccccc1-n1ncc2c(SCC(=O)NCc3cccs3)ncnc21`, the z-score is -0.38 (inactive) and the cell count was found to be 2670 cells.
Take `N#Cc1c(-c2ccco2)cc(C2CC2)nc1SCC(=O)c1ccccc1`: the z-score was -0.27 (inactive) and the cell count came to 3090 cells.
In the same order, the values of `CCCCNC(=S)NC(=O)c1ccc(Cl)cc1Cl` are -0.39 (inactive) and 3500 cells.
As to `N#CC(C#N)=C1C=C2C=C(N3CCOCC3)CCC2CC1` (stereo unspecified), the z-score was 1.21 and the cell count turned out to be 3080 cells.
For `CCCn1nc2cc(C(=O)NCc3ccccc3)ccc2c1OCC`, in that order: -0.33 (inactive) and 3340 cells.
`COC(=O)[C@@H](NC(=O)Nc1cccc(OC)c1)C(C)C`: the z-score was -0.39 (inactive) and the cell count turned out to be 3030 cells.
In the same order, the values of `Cc1ccccc1OCC(=O)OC1CCN(C)CC1` are -0.38 (inactive) and 2940 cells.
In the same order, the values of `CC(=O)OC(C(=O)NCc1ccc(F)cc1)c1ccccn1` (stereo unspecified) are -0.39 (inactive) and 2840 cells.
In the same order, the values of `Cc1ccc(C)c(NC(=O)C(C)CC2COCCO2)c1` (stereo unspecified) are -0.38 (inactive) and 3230 cells.
Take `Cc1ccc(-n2c(C)nc3oc4ccccc4c(=O)c3c2=O)cc1`: the z-score was -0.33 (inactive) and the cell count was found to be 3180 cells.
In the same order, the values of `CC(C)(CNS(=O)(=O)c1ccc(Cl)cc1)N1CCCCC1` are -0.34 (inactive) and 3730 cells.
For `CN(C)C(=O)C12CCC(C)(c3nc4ccccc4nc31)C2(C)C` (stereo unspecified), in that order: -0.38 (inactive) and 3350 cells.
For `O=C(CCl)Nc1cccc2ncccc12`, in that order: -0.38 (inactive) and 2060 cells.
Regarding `COc1ccc(C)cc1NC(=O)COC(C)=O`, the z-score is -0.33 (inactive) and the cell count stood at 3030 cells.
In the same order, the values of `CC1CCc2c(sc3nn[nH]c(=O)c23)C1` (stereo unspecified) are -0.33 (inactive) and 2750 cells.
In the same order, the values of `Cc1cc(S(=O)(=O)NC2CCCCC2)c(C)s1` are -0.33 (inactive) and 3420 cells.
For `COc1cc2c(cc1NC(=O)CN1CCN(S(=O)(=O)c3ccccc3F)CC1)oc1ccccc12`, in that order: -0.33 (inactive) and 3180 cells.
Regarding `Nc1cc2nc3ccccc3nc2cc1N`, the z-score was -0.37 (inactive) and the cell count was 1390 cells.

(Values after PubChem BioAssay AID2124 (Sanford-Burnham Center for Chemical Genomics, 2009).)
